# PubChem BioAssay AID1549 (Sanford-Burnham Center for Chemical Genomics, 2009)
# Calls of active or inactive are those of the source. How the calls were made is not given here.
# Biological target: Influenza A virus M2 proton channel (A/TW/4845/1999 H1N1)
# Test: M2 proton channel binding, NMR based, influenza A virus H1N1 strain (AID 1549)
# Conditions: NMR binding screen, M2 protein
row,SMILES,Kd
1,NS(=O)(=O)c1ccc(NC(=O)c2cccs2)cc1,> 4 mM (inactive)
2,O=C1CSC(=Nc2ccc(F)cc2)N1,> 4 mM (inactive)
3,Cc1nn(C)c(Cl)c1C(O)c1c(C)nn(C)c1Cl,> 4 mM (inactive)
4,COc1ccc2c(c1)OC1(O)COc3cc(OC)c(OC)cc3C1=C2 (stereo not drawn),> 4 mM (inactive)
5,Cc1ncc(CC(=O)O)s1,> 4 mM (inactive)
6,CC(=O)NC(=S)Nc1cccc(C(=O)O)c1C,> 4 mM (inactive)
7,Cc1nc(-c2ccc(C(=O)N3CCOCC3)cc2)cs1,> 4 mM (inactive)
8,NC(=O)CC1Sc2ccccc2NC1=O (stereo not drawn),> 4 mM (inactive)
9,CCC(=O)NC(=S)Nc1ccc(O)cc1,> 4 mM (inactive)
10,Cc1ccccc1C(=O)Nn1cnnc1,> 4 mM (inactive)
11,C=CCNC(=O)c1nn2cccnc2c1Cl,> 4 mM (inactive)
12,Cc1c(C)n2c(SCC(N)=O)nnc2[nH]c1=O,> 4 mM (inactive)
13,Cc1nccc(-c2cccc(N)c2)n1,> 4 mM (inactive)
14,COc1ccc(C(=O)NC2=NCCS2)cc1OC,> 4 mM (inactive)
15,Cn1nnc2cc(C(=O)NCc3ccco3)ccc21,> 4 mM (inactive)
16,CCNC(=O)CC1Nc2ccccc2NC1=O (stereo not drawn),> 4 mM (inactive)
17,Cn1c(SCC(N)=O)nc2ccccc2c1=O,> 4 mM (inactive)
18,O=C(O)c1ccc2c(c1)OCO2,> 4 mM (inactive)
19,O=C(O)c1ccccc1C(=O)NCC1CCCO1 (stereo not drawn),> 4 mM (inactive)
20,NC(N)=NOCC[C@H](N)C(=O)O,> 4 mM (inactive)

row,SMILES,Kd
1,O=C(NC(=S)NC1CCS(=O)(=O)C1)c1ccccc1 (stereo not drawn),> 4 mM (inactive)
2,C(=Nn1cnnc1)c1ccccc1,> 4 mM (inactive)
3,O=C(CCc1n[nH]c(=O)[nH]c1=O)NCc1ccccc1,> 4 mM (inactive)
4,O=C(O)c1cc(=O)c2cccc(O)c2[nH]1,> 4 mM (inactive)
5,COc1cc2c(cc1OC)-c1cc3ccc(OC)c(OC)c3c[n+]1CC2,> 4 mM (inactive)
6,O=c1[nH]cc(S(=O)(=O)N2CCc3ccccc32)c(=O)[nH]1,> 4 mM (inactive)
7,O=C(NCc1ccccc1F)c1cccs1,> 4 mM (inactive)
8,COC(=O)C[C@H]1C2(C)CC34OC5(C)O[C@@]6([C@H](OC(C)=O)C(OC(C)=O)[C@]7(C)C(/C(=C(/O)C(C)C)C(=O)O[C@H]7c7ccoc7)[C@@]6(O5)[C@H](OC(C)=O)[C@@]3(O)C2OC(=O)C(C)C)[C@]14C (stereo partly drawn),> 4 mM (inactive)
9,Cc1cc(N)n(-c2ccccc2)n1,> 4 mM (inactive)
10,O=C(O)c1ccc2nsnc2c1,> 4 mM (inactive)
11,CN(c1ccccc1C(=O)N1CCCC1)S(C)(=O)=O,> 4 mM (inactive)
12,O=C(Oc1ccc2c(c1)CCC2)N1CCOCC1,> 4 mM (inactive)
13,O=C1CCC(=O)N1c1cccnc1,> 4 mM (inactive)
14,CNC(=O)c1cccc(NC(=S)NC)c1,> 4 mM (inactive)
15,O=C(Nc1cccnc1)Nc1ccc2c(c1)OCO2,> 4 mM (inactive)
16,Cc1cc(C)n(CC(=O)O)n1,> 4 mM (inactive)
17,COC(=O)/C(=C1\OC(=O)C(c2ccccc2)C1=O)c1ccccc1 (stereo not drawn),> 4 mM (inactive)
18,Cc1ccc2c(c1)=C(c1sc(N)nc1O)C(=O)N=2,> 4 mM (inactive)
19,CC(=O)Nc1ccc2c(c1)C(=O)N(C1CCCCC1)C2=O,> 4 mM (inactive)
20,NCc1cccc2nsnc12,> 4 mM (inactive)

row,SMILES,Kd
1,CC(=O)CC1CCCCN1 (stereo not drawn),> 4 mM (inactive)
2,O=C(Cc1cccs1)Nc1ccon1,> 4 mM (inactive)
3,CCC(C)C(=O)O[C@H]1[C@H](O)C2C(CN3CC(C)CCC3[C@@]2(C)O)C2C[C@]34O[C@]5(O)C(OC(=O)C(C)(O)CC)CC[C@@]3(C)C5C(OC(C)=O)[C@@H](OC(C)=O)C4[C@@]21O (stereo partly drawn),> 4 mM (inactive)
4,CC(CCC(=O)O)[C@H]1CCC2C3CC[C@@H]4CCCC[C@]4(C)C3CC[C@@]21C (stereo partly drawn),> 4 mM (inactive)
5,O=C(c1ccccc1)c1ccc(N2CCNCC2)cc1,> 4 mM (inactive)
6,Cc1ccc(-c2cc(C(=O)N3CCCC3)no2)cc1,> 4 mM (inactive)
7,C[C@@H]1CC[C@@]2(OC1)O[C@H]1CC3C4CC[C@H]5C[C@@H](O)CC[C@]5(C)C4CC[C@]3(C)[C@H]1[C@@H]2C (stereo partly drawn),> 4 mM (inactive)
8,Cc1c(-c2ccc(F)cc2)[n+](=O)c2c(n1[O-])CCC2,> 4 mM (inactive)
9,Cc1cc(=O)n(CCc2ccccc2)c(O)c1C#N,> 4 mM (inactive)
10,CSc1nnc2[nH]c(=O)cc(N)n12,> 4 mM (inactive)
11,CC(O)C(=O)N/N=C/c1cccs1 (stereo not drawn),> 4 mM (inactive)
12,CN(C(=O)c1cc2cccnc2n(C)c1=O)c1ccccc1,> 4 mM (inactive)
13,CCC(=O)Nc1cc(C(C)C)c(O)cc1C,> 4 mM (inactive)
14,Cc1cc(C)c(C(N)=O)c(=S)[nH]1,> 4 mM (inactive)
15,CS(C)=C1C(=O)NC(=O)N(Cc2ccc(F)cc2)C1=O,> 4 mM (inactive)
16,COc1cc2c(cc1OC)Cc1cc(OC)c(OC)cc1Cc1cc(OC)c(OC)cc1C2,> 4 mM (inactive)
17,CN1CCc2c(sc(N)c2C#N)C1,> 4 mM (inactive)
18,CC(=O)Nc1ccc(NC2SC(=O)NC2=O)cc1 (stereo not drawn),> 4 mM (inactive)
